Experimental data: the supplement of paper PMC10307832

Assays:
Test in all cases: relative viability (nuclei count vs DMSO), 5 days (fraction); higher = more cells survive
Vorinostat + Tozasertib = compound: O=C(CCCCCCC(=O)Nc1ccccc1)NO [Vorinostat] + Cc1cc(Nc2cc(N3CCN(C)CC3)nc(Sc3ccc(NC(=O)C4CC4)cc3)n2)n[nH]1 [Tozasertib] (partner 0.1 µM)
How it was run: (§1)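 Lung cancer cell lines in 1536-well plates got either a single drug or a fixed anchor-drug dose together with five library-drug doses (not always all listed) in √10 steps, by pin tool, on the day after seeding. Nuclei were counted after 5 days, and relative viability is the treated-to-vehicle ratio of nuclei counts. Values are medians of duplicate plates.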

Vorinostat + Crizotinib = compound: O=C(CCCCCCC(=O)Nc1ccccc1)NO [Vorinostat] + C[C@@H](Oc1cc(-c2cnn(C3CCNCC3)c2)cnc1N)c1c(Cl)ccc(F)c1Cl [Crizotinib] (partner 1 µM)
How it was run: as §1

Vorinostat + Linsitinib = compound: O=C(CCCCCCC(=O)Nc1ccccc1)NO [Vorinostat] + C[C@]1(O)C[C@@H](c2nc(-c3ccc4ccc(-c5ccccc5)nc4c3)c3c(N)nccn32)C1 [Linsitinib] (partner 1 µM)
How it was run: as §1

Vorinostat + Dasatinib = compound: O=C(CCCCCCC(=O)Nc1ccccc1)NO [Vorinostat] + Cc1nc(Nc2ncc(C(=O)Nc3c(C)cccc3Cl)s2)cc(N2CCN(CCO)CC2)n1 [Dasatinib] (partner 0.075 µM)
How it was run: as §1

Vorinostat + OSI-027 = compound: O=C(CCCCCCC(=O)Nc1ccccc1)NO [Vorinostat] + COc1cccc2cc(-c3nc([C@H]4CC[C@H](C(=O)O)CC4)n4ncnc(N)c34)[nH]c12 [OSI-027] (partner 0.5 µM)
How it was run: as §1

Row | Cell Line | relative viability (Vorinostat + Tozasertib; first compound 0.253 µM) | relative viability (Vorinostat + Tozasertib; first compound 0.8 µM) | relative viability (Vorinostat + Tozasertib; first compound 2.53 µM) | relative viability (Vorinostat + Tozasertib; first compound 8 µM) | relative viability (Vorinostat + Crizotinib; first compound 0.253 µM) | relative viability (Vorinostat + Crizotinib; first compound 0.8 µM) | relative viability (Vorinostat + Crizotinib; first compound 2.53 µM) | relative viability (Vorinostat + Crizotinib; first compound 8 µM) | relative viability (Vorinostat + Linsitinib; first compound 0.253 µM) | relative viability (Vorinostat + Linsitinib; first compound 0.8 µM) | relative viability (Vorinostat + Linsitinib; first compound 2.53 µM) | relative viability (Vorinostat + Linsitinib; first compound 8 µM) | relative viability (Vorinostat + Dasatinib; first compound 0.253 µM) | relative viability (Vorinostat + Dasatinib; first compound 0.8 µM) | relative viability (Vorinostat + Dasatinib; first compound 2.53 µM) | relative viability (Vorinostat + Dasatinib; first compound 8 µM) | relative viability (Vorinostat + OSI-027; first compound 0.253 µM) | relative viability (Vorinostat + OSI-027; first compound 0.8 µM) | relative viability (Vorinostat + OSI-027; first compound 2.53 µM) | relative viability (Vorinostat + OSI-027; first compound 8 µM)
1 | EMC-BAC-2 | 0.199 | 0.202 | 0.149 | 0.144 | 0.817 | 0.558 | 0.166 | 0.107 | 0.977 | 0.866 | 0.47 | 0.134 | 0.311 | 0.204 | 0.169 | 0.108 | 0.356 | 0.316 | 0.173 | 0.146
2 | NCI-H661 | 0.342 | 0.262 | 0.249 | 0.269 | 1.01 | 1.03 | 0.483 | 0.327 | 0.759 | 0.752 | 0.298 | 0.184 | 1.11 | 0.791 | 0.247 | 0.223 | 0.79 | 0.665 | 0.297 | 0.245
3 | NCI-H322M | 0.51 | 0.496 | 0.381 | 0.298 | 0.888 | 0.758 | 0.447 | 0.194 | 1.04 | 1.01 | 0.51 | 0.275 | 0.286 | 0.268 | 0.255 | 0.264 | 0.584 | 0.502 | 0.32 | 0.235
4 | HCC-15 | 0.294 | 0.219 | 0.101 | 0.0559 | 0.919 | 0.879 | 0.496 | 0.0884 | 0.87 | 0.917 | 0.514 | 0.0962 | 0.748 | 0.589 | 0.225 | 0.06 | 0.698 | 0.487 | 0.269 | 0.0848
5 | BEN | 0.463 | 0.441 | 0.248 | 0.0886 | 1.06 | 0.553 | 0.147 | 0.0454 | 0.985 | 0.543 | 0.156 | 0.0466 | 0.306 | 0.233 | 0.157 | 0.06 | 0.287 | 0.24 | 0.0754 | 0.0473
6 | LCLC-103H | 0.377 | 0.27 | 0.162 | 0.127 | 1.12 | 1.13 | 0.737 | 0.254 | 1.18 | 0.999 | 0.597 | 0.172 | 0.504 | 0.533 | 0.339 | 0.134 | 0.545 | 0.502 | 0.429 | 0.143
7 | NCI-H727 | 0.545 | 0.56 | 0.315 | 0.362 | 0.962 | 0.687 | 0.299 | 0.214 | 0.236 | 0.351 | 0.15 | 0.289 | 0.486 | 0.423 | 0.262 | 0.206 | 0.682 | 0.574 | 0.477 | 0.393
8 | NCI-H650 | 0.686 | 0.421 | 0.154 | 0.136 | 0.716 | 0.503 | 0.155 | 0.165 | 1.13 | 0.52 | 0.205 | 0.152 | 0.475 | 0.357 | 0.196 | 0.126 | 0.514 | 0.458 | 0.175 | 0.129
9 | HCC-366 | 0.0967 | 0.0579 | 0.033 | 0.031 | 0.217 | 0.1 | 0.0143 | 0.0124 | 0.637 | 0.545 | 0.0527 | 0.0206 | 0.805 | 0.426 | 0.102 | 0.0346 | 0.979 | 0.432 | 0.146 | 0.0279
10 | NCI-H2009 | 0.776 | 0.574 | 0.295 | 0.133 | 0.992 | 0.983 | 0.457 | 0.0597 | 1.27 | 1.07 | 0.707 | 0.177 | 0.466 | 0.454 | 0.168 | 0.082 | 0.793 | 0.795 | 0.254 | 0.0901
11 | NCI-H838 | 0.263 | 0.227 | 0.172 | 0.111 | 0.986 | 0.76 | 0.241 | 0.105 | 1.19 | 1.08 | 0.459 | 0.172 | 0.378 | 0.442 | 0.368 | 0.186 | 0.531 | 0.508 | 0.298 | 0.137
12 | HCC-78 | 0.384 | 0.268 | 0.167 | 0.2 | 0.319 | 0.229 | 0.117 | 0.137 | 0.547 | 0.238 | 0.135 | 0.107 | 0.371 | 0.398 | 0.211 | 0.2 | 0.346 | 0.32 | 0.224 | 0.234
13 | NCI-H2085 | 0.771 | 0.651 | 0.376 | 0.311 | 0.8 | 0.831 | 0.436 | 0.181 | 0.818 | 0.804 | 0.621 | 0.243 | 0.24 | 0.252 | 0.223 | 0.225 | 0.722 | 0.463 | 0.415 | 0.205
14 | NCI-H2228 | 0.199 | 0.103 | 0.0837 | 0.0871 | 0.593 | 0.502 | 0.246 | 0.168 | 0.805 | 0.542 | 0.425 | 0.0918 | 0.39 | 0.323 | 0.127 | 0.0817 | 0.767 | 0.452 | 0.203 | 0.0986
15 | PC-14 | 0.586 | 0.389 | 0.0619 | 0.018 | 0.888 | 0.865 | 0.215 | 0.0683 | 1.01 | 0.911 | 0.323 | 0.112 | 0.344 | 0.239 | 0.0451 | 0.026 | 1.13 | 0.832 | 0.0624 | 0.0451
16 | A-427 | 0.182 | 0.168 | 0.134 | 0.0919 | 0.954 | 0.847 | 0.274 | 0.096 | 1.11 | 1.08 | 0.875 | 0.17 | 0.823 | 0.565 | 0.332 | 0.133 | 0.535 | 0.281 | 0.226 | 0.105
17 | NCI-H1755 | 0.613 | 0.51 | 0.319 | 0.179 | 0.942 | 0.883 | 0.233 | 0.154 | 1.07 | 1.05 | 0.512 | 0.188 | 0.447 | 0.469 | 0.254 | 0.139 | 0.734 | 0.681 | 0.384 | 0.185
18 | NCI-H1666 | 0.499 | 0.346 | 0.307 | 0.259 | 0.788 | 0.713 | 0.244 | 0.22 | 0.864 | 0.707 | 0.33 | 0.227 | 0.881 | 0.698 | 0.422 | 0.266 | 0.772 | 0.678 | 0.383 | 0.335
19 | LOU-NH91 | 0.615 | 0.481 | 0.36 | 0.295 | 0.755 | 0.746 | 0.599 | 0.362 | 1.1 | 0.901 | 0.547 | 0.338 | 0.661 | 0.577 | 0.544 | 0.361 | 0.828 | 0.62 | 0.516 | 0.303
20 | HARA | 0.139 | 0.104 | 0.0618 | 0.0739 | 1.15 | 0.932 | 0.136 | 0.0954 | 1.13 | 0.948 | 0.254 | 0.101 | 0.311 | 0.238 | 0.18 | 0.0565 | 0.64 | 0.213 | 0.155 | 0.0573
21 | NCI-H441 | 0.607 | 0.529 | 0.3 | 0.194 | 0.722 | 0.776 | 0.141 | 0.11 | 0.501 | 0.619 | 0.255 | 0.117 | 0.846 | 0.557 | 0.285 | 0.138 | 0.705 | 0.576 | 0.229 | 0.194
22 | NCI-H358 | 0.128 | 0.11 | 0.0949 | 0.0726 | 0.526 | 0.393 | 0.133 | 0.134 | 0.969 | 0.83 | 0.219 | 0.156 | 0.182 | 0.227 | 0.0991 | 0.0768 | 1.14 | 0.793 | 0.189 | 0.0874
23 | NCI-H460 | 0.593 | 0.0486 | 0.0314 | 0.0259 | 1.05 | 0.336 | 0.0241 | 0.0093 | 0.902 | 0.544 | 0.0315 | 0.0069 | 0.577 | 0.423 | 0.134 | 0.0239 | 0.821 | 0.484 | 0.0397 | 0.0148
24 | NCI-H596 | 0.839 | 0.819 | 0.378 | 0.183 | 1.05 | 0.945 | 0.517 | 0.31 | 1.02 | 1.04 | 0.677 | 0.335 | 0.634 | 0.448 | 0.385 | 0.202 | 0.843 | 0.36 | 0.637 | 0.293
25 | NCI-H1651 | 0.609 | 0.326 | 0.153 | 0.0653 | 0.846 | 0.786 | 0.232 | 0.097 | 1.01 | 0.762 | 0.0741 | 0.0616 | 0.415 | 0.195 | 0.0466 | 0.0608 | 1 | 0.607 | 0.195 | 0.0644
26 | EKVX | 0.39 | 0.275 | 0.194 | 0.11 | 0.958 | 0.891 | 0.428 | 0.152 | 1.14 | 1.04 | 0.515 | 0.141 | 0.535 | 0.528 | 0.236 | 0.179 | 0.623 | 0.659 | 0.39 | 0.132
